Results from patent EP0006532A1, “Lactams, methods for their preparation, and medicaments containing them” (Dr. Karl Thomae GmbH, priority 1978, dated 1980).
Values after ≈ are worked out from the molar mass of the structure shown.

Assays:
E.coli 12593/ 74 = test: MIC (MHK), agar diffusion and serial dilution test; type: cell-based; details: Escherichia coli, read-out: MHK-Werte
Source text: (§1) Die Untersuchungen auf die antibakterielle Wirksamkeit in vitro wurde nach dem Agar-Diffusionstest und nach dem Reihenverdünnungstest in Anlehnung an die von P. Klein in "Bakteriologische Grundlagen der Chemotherapeutischen Laboratoriumspraxis", Springerverlag 1957, Seiten 53 bis 76 und 87 bis 109, beschriebenen Methodik durchgeführt.
(§2) Für D-α-[3-(3,4-Dihydro-3-methyl-2-hydroxy-4-oxo-5- pyrimidyl)-ureido/-p-hydroxybenzyl-penicillin-Natrium (Verbindung 1) und für Natrium-7-{D-α-[3-(3,4-Dihydro-2-hydroxy-3-methyl-4-oxo-5-pyrimidyl)-ureido]-p-hydroxyphenylacetamido}-3-[(1-methyl-tetrazol-5-yl)-thiomethyl]-ceph-3-em-4-carboxylat (Verbindung 2) wurden folgende MHK-Werte gegen einige gramnegative Keime gemessen: […]

E.coli ATCC 11775 = test: MIC (MHK), agar diffusion and serial dilution test; type: cell-based; details: Escherichia coli, ATCC11775, read-out: MHK-Werte
Source text: as §1, §2

E.coli ATCC 9637 = test: MIC (MHK), agar diffusion and serial dilution test; type: cell-based; details: Escherichia coli, ATCC9637, read-out: MHK-Werte
Source text: as §1, §2

Klebs. pneum. 272 = test: MIC (MHK), agar diffusion and serial dilution test; type: cell-based; details: read-out: MHK-Werte
Source text: as §1, §2

Klebs. pneum. ATCC 10031 = test: MIC (MHK), agar diffusion and serial dilution test; type: cell-based; details: read-out: MHK-Werte
Source text: as §1, §2

Proteus Vulgaris = test: MIC (MHK), agar diffusion and serial dilution test; type: cell-based; details: read-out: MHK-Werte
Source text: as §1, §2

Proteus mirab. = test: MIC (MHK), agar diffusion and serial dilution test; type: cell-based; details: read-out: MHK-Werte
Source text: as §1, §2

Pseud.aerug Hbg. = test: MIC (MHK), agar diffusion and serial dilution test; type: cell-based; details: read-out: MHK-Werte
Source text: as §1, §2

Pseud.aerug. ATCC 10145 = test: MIC (MHK), agar diffusion and serial dilution test; type: cell-based; details: read-out: MHK-Werte
Source text: as §1, §2

[1] = tested on: Ser. marcescens ATCC 13880; test: MIC (MHK), agar diffusion and serial dilution test; type: cell-based; details: Serratia marcescens, ATCC13880, read-out: MHK-Werte
Source text: as §1, §2

[2] = tested on: E. coli des Stammes ATCC 11 775; test: ED50 in intraperitoneal E. coli infection of mice; type: in vivo, Albino-Mäusen vom Stamm NMRI; details: Escherichia coli, ATCC11, sc; intraperitoneal E. coli ATCC 11 775 infection, NMRI albino mice, subcutaneous application; treated three times on day 1 (first 1 h after infection), twice daily on 2 further days
Protocol: Dabei wurde die ED50 der oben genannten Verbindungen 1 und 2 bei einer intraperitonealen E. coli-Infektion an Albino-Mäusen vom Stamm NMRI bestimmt. Am ersten Tag wurde dreimal behandelt (erstmals 1 h nach Infektion) und 2 weitere Tage zweimalig.

Row | Compound | MIC (E.coli 12593/ 74) | MIC (E.coli ATCC 11775) | MIC (E.coli ATCC 9637) | MIC (Klebs. pneum. 272) | MIC (Klebs. pneum. ATCC 10031) | MIC (Proteus Vulgaris) | MIC (Proteus mirab.) | MIC (Pseud.aerug Hbg.) | MIC (Pseud.aerug. ATCC 10145) | MIC [1] | ED50 [2]
1 | Cn1c(O)ncc(NC(=O)N[C@@H](C(=O)N[C@@H]2C(=O)N3[C@@H]2SC(C)(C)[C@@H]3C(=O)O)c2ccc(O)cc2)c1=O [Verbindung 1] | > 80 µg/mL | 2.5 µg/mL (≈ 4.69 µM) | 2.5 µg/mL (≈ 4.69 µM) | 40 to 80 µg/mL (≈ 75.1 to 150 µM) | 40 to 80 µg/mL (≈ 75.1 to 150 µM) | 10 µg/mL (≈ 18.8 µM) | 1.25 µg/mL (≈ 2.35 µM) | 5 µg/mL (≈ 9.39 µM) | 5 µg/mL (≈ 9.39 µM) | 2.5 µg/mL (≈ 4.69 µM) | 7 mg/kg
2 | Cn1nnnc1SCC1=C(C(=O)[O-])N2C(=O)C(NC(=O)[C@H](NC(=O)Nc3cnc(O)n(C)c3=O)c3ccc(O)cc3)[C@H]2SC1.[Na+] (stereo partly drawn) [Verbindung 2, Natrium-7-{D-α-[3-(3,4-Dihydro-2-hydroxy-3-methyl-4-oxo-5-pyrimidyl)-ureido]-p-hydroxyphenylacetamido}-3-[(1-methyl-tetrazol-5-yl)-thiomethyl]-ceph-3-em-4-carboxylat] |  |  |  |  |  |  |  |  |  |  | 3.3 mg/kg
3 | Cn1nnnc1SCC1=C(C(=O)O)N2C(=O)[C@@H](NC(=O)[C@H](NC(=O)Nc3cnc(O)n(C)c3=O)c3ccc(O)cc3)[C@H]2SC1 [Beispiel 2] | 5 µg/mL (≈ 7.76 µM) | 1.25 µg/mL (≈ 1.94 µM) | 1.25 µg/mL (≈ 1.94 µM) | 2.5 µg/mL (≈ 3.88 µM) | 1.25 µg/mL (≈ 1.94 µM) | 10 µg/mL (≈ 15.5 µM) | 1.25 µg/mL (≈ 1.94 µM) | 20 µg/mL (≈ 31 µM) | 20 to 40 µg/mL (≈ 31 to 62 µM) | 10 µg/mL (≈ 15.5 µM) | 
